From ChEMBL document CHEMBL4725400, “Natural product-inspired aryl isonitriles as a new class of antimalarial compounds against drug-resistant parasites” (Bioorg Med Chem, 2020)

test system: Plasmodium falciparum; assay: Antimalarial activity against blood stage chloroquine-resistant Plasmodium falciparum Dd2 infected in human erythrocytes assessed as inhibition of parasite growth incubated for 72 hrs by SYBR Green I dye based staining analysis; assay type: functional, organism-based; settings: Dd2, Erythrocyte

Which EC50 does the source give for `[C-]#[N+]c1ccc(/C=C/c2cc(OC)cc(OC)c2)cc1` here?
Its EC50 is 1.62 µM.

For `[C-]#[N+]c1ccccc1/C=C(\CC)c1ccccc1`, which EC50 is on record?
The EC50 was 10.6 µM.

With `[C-]#[N+]c1ccccc1-c1ccccc1` as the compound, how does the EC50 read?
The EC50 was 10.8 µM.

For `[C-]#[N+]c1ccc(/C=C/c2ccncc2)cc1`, which EC50 is on record?
Its EC50 is 0.088 µM.

For `[C-]#[N+]c1ccccc1/C=C/c1ccccc1F`, which EC50 is on record?
Its EC50 is 3.68 µM.

With `[C-]#[N+]c1ccccc1/C=C/c1ccc(OC)cc1` as the compound, how does the EC50 read?
Its EC50 is 3.07 µM.

For `[C-]#[N+]c1ccc(/C=C/c2ccc(Cl)c(Cl)c2)cc1`, which EC50 is on record?
The EC50 was 3.21 µM.

Which EC50 does the source give for `[C-]#[N+]c1ccc(/C=C/c2ccc([N+]#[C-])cc2)cc1` here?
Its EC50 is 0.027 µM.

Which EC50 does the source give for `[C-]#[N+]c1cccc(/C=C/c2cccnc2)c1` here?
The EC50 was 0.69 µM.

Which EC50 does the source give for `[C-]#[N+]c1ccccc1/C=C/c1cccnc1` here?
Its EC50 is 13 µM.

For `[C-]#[N+]c1ccc(/C=C/c2ccc(C(F)(F)F)cc2)cc1`, which EC50 is on record?
Its EC50 is 2.17 µM.

With `[C-]#[N+]c1ccc(/C=C/c2cccc(OC)c2)cc1` as the compound, how does the EC50 read?
The EC50 was 1.01 µM.

With `[C-]#[N+]c1ccc(/C=C/c2ccnc3ccccc23)cc1` as the compound, how does the EC50 read?
The EC50 was 6.98 µM.

With `[C-]#[N+]c1ccccc1/C=C/c1ccccc1OC` as the compound, how does the EC50 read?
The EC50 was 21.6 µM.

For `[C-]#[N+]c1ccccc1/C=C/c1ccc(F)cc1`, which EC50 is on record?
The EC50 was 0.56 µM.

For `[C-]#[N+]c1ccc(CCc2ccncc2)cc1`, which EC50 is on record?
Its EC50 is 0.56 µM.

With `[C-]#[N+]c1ccc(/C=C/c2ccco2)cc1` as the compound, how does the EC50 read?
Its EC50 is 2.66 µM.

For `[C-]#[N+]c1ccccc1/C=C(\CCCC)c1ccccc1`, which EC50 is on record?
The EC50 was 5.25 µM.

With `[C-]#[N+]c1ccccc1/C=C/c1cccc(OC)c1` as the compound, how does the EC50 read?
The EC50 was 6.45 µM.

Which EC50 does the source give for `[C-]#[N+]c1ccc(/C=C/c2cccnc2)cc1` here?
The EC50 was 5.18 µM.

With `[C-]#[N+]c1ccc(CCc2cccc([N+]#[C-])c2)cc1` as the compound, how does the EC50 read?
The EC50 was 2.75 µM.

Which EC50 does the source give for `[C-]#[N+]c1ccccc1/C=C/c1ccccc1C(F)(F)F` here?
The EC50 was 4.31 µM.

Which EC50 does the source give for `[C-]#[N+]c1ccccc1/C=C/c1cccc(F)c1` here?
Its EC50 is 12.4 µM.

With `[C-]#[N+]c1ccccc1/C=C/c1ccc(C(F)(F)F)cc1` as the compound, how does the EC50 read?
Its EC50 is 5.8 µM.

Which EC50 does the source give for `[C-]#[N+]c1ccccc1/C=C/c1cccc(C(F)(F)F)c1` here?
The EC50 was 0.27 µM.

For `[C-]#[N+]c1ccccc1/C=C(\CC)c1cccc(C(F)(F)F)c1`, which EC50 is on record?
Its EC50 is 5.41 µM.

For `[C-]#[N+]c1cccc(/C=C/c2ccccn2)c1`, which EC50 is on record?
The EC50 was 9.73 µM.

For `[C-]#[N+]c1ccccc1C=C(c1ccccc1)c1ccccc1`, which EC50 is on record?
The EC50 was 3.62 µM.

Which EC50 does the source give for `[C-]#[N+]c1ccccc1/C=C(\CC)c1ccc(C(F)(F)F)cc1` here?
The EC50 was 7.69 µM.

Which EC50 does the source give for `[C-]#[N+]c1ccc(/C=C/c2ccc(F)cc2)cc1` here?
The EC50 was 4.69 µM.

With `[C-]#[N+]c1ccc(/C=C/c2ccccc2[N+]#[C-])cc1` as the compound, how does the EC50 read?
The EC50 was 0.068 µM.

Which EC50 does the source give for `[C-]#[N+]c1ccccc1/C=C(\CC)c1ccc(F)cc1` here?
Its EC50 is 9.84 µM.

For `[C-]#[N+]c1ccc(/C=C/c2ccc3ccccc3n2)cc1`, which EC50 is on record?
The EC50 was 5.25 µM.

For `[C-]#[N+]c1ccccc1-c1ccc2ccccc2c1`, which EC50 is on record?
Its EC50 is 6.21 µM.

Which EC50 does the source give for `[C-]#[N+]c1ccc(/C=C/c2cccc([N+]#[C-])c2)cc1` here?
Its EC50 is 0.266 µM.

For `[C-]#[N+]c1ccccc1/C=C(\CCC)c1ccccc1`, which EC50 is on record?
Its EC50 is 3.06 µM.

With `CC/C(=C\c1ccccc1)c1ccccc1` as the compound, how does the EC50 read?
Its EC50 is > 100 µM.

Which EC50 does the source give for `[C-]#[N+]c1ccc(/C=C/c2ccc(OC)cc2)cc1` here?
The EC50 was 2.27 µM.

Which EC50 does the source give for `[C-]#[N+]c1ccccc1/C=C/c1ccncc1` here?
Its EC50 is 3.7 µM.

With `[C-]#[N+]c1ccccc1/C=C/c1ccccn1` as the compound, how does the EC50 read?
Its EC50 is 7.53 µM.

With `[C-]#[N+]c1cccc(/C=C/c2ccccc2)c1` as the compound, how does the EC50 read?
Its EC50 is 5.32 µM.

For `[C-]#[N+]c1ccc(CCc2ccc([N+]#[C-])cc2)cc1`, which EC50 is on record?
The EC50 was 0.22 µM.

With `[C-]#[N+]c1ccc(CCc2ccccc2[N+]#[C-])cc1` as the compound, how does the EC50 read?
Its EC50 is 0.44 µM.

For `[C-]#[N+]c1ccc(/C=C/c2ccccn2)cc1`, which EC50 is on record?
The EC50 was 10.3 µM.

Which EC50 does the source give for `[C-]#[N+]c1ccccc1/C=C/c1ccccc1` here?
Its EC50 is 11.5 µM.

Which EC50 does the source give for `[C-]#[N+]c1ccc(/C=C/c2ccccc2)cc1` here?
The EC50 was 2.77 µM.

test system: not listed separately; assay: Selectivity index, ratio of IC50 for cytotoxicity against human KB cells to EC50 for antiplasmodial activity against Plasmodium falciparum W2; assay type: toxicity, cell-based; settings: read-out: Selectivity Index

With `[C-]#[N+][C@]1(C)[C@H](C)C[C@@H]2C[C@H](C)[C@H]3CC[C@](C)([N+]#[C-])[C@H]4CC[C@H]1[C@@H]2[C@H]34` [DIISOCYANOADOCIANE] as the compound, how does the selectivity ratio read?
Its selectivity ratio is 1000.

test system: Plasmodium falciparum; assay: Antimalarial activity against Plasmodium falciparum W2 assessed as inhibition of parasite growth; assay type: functional, organism-based; settings: not given

Which EC50 does the source give for `[C-]#[N+][C@]1(C)[C@H](C)C[C@@H]2C[C@H](C)[C@H]3CC[C@](C)([N+]#[C-])[C@H]4CC[C@H]1[C@@H]2[C@H]34` [DIISOCYANOADOCIANE] here?
Its EC50 is 0.013 µM.

For `[C-]#[N+][C@@H]1[C@H](C(C)C)CC[C@@H](C)[C@@]12C=C(C)CC2` [AXISONITRILE 3], which EC50 is on record?
Its EC50 is 0.071 µM.

With `CC1=C[C@]2(CC1)[C@H](C)CC[C@@H](C(C)C)[C@H]2N=C=S` as the compound, how does the EC50 read?
The EC50 was 11.8 µM.

test system: not listed separately; assay: Selectivity index, ratio of MTD for cytotoxicity against human HaCaT cells to EC50 for antimalarial activity against blood stage chloroquine-resistant Plasmodium falciparum Dd2 infected in human erythrocytes; assay type: toxicity, cell-based; settings: read-out: Selectivity Index

For `[C-]#[N+]c1ccc(/C=C/c2ccncc2)cc1`, which selectivity ratio is on record?
The selectivity ratio was 1450.

With `[C-]#[N+]c1ccc(/C=C/c2ccc([N+]#[C-])cc2)cc1` as the compound, how does the selectivity ratio read?
Its selectivity ratio is 4740.
